# Test results published in US8133913B2, “Substituted indeno [1,2-b]indole derivatives as novel inhibitors of protein kinase CK2 and their use as tumor therapeutic agents, cytostatics and diagnostic aids” (Heinrich-Heine Universitat Dusseldof, priority 2006, dated 2012).
# Read-outs that look alike come from different tables or passages of the source.
# How the values were obtained:
# Assay in all cases: Radiometric protein kinase assay (33PanQinase Activity Assay)
# Assay type in all cases: biochemical
# FLT3 = target: T1, FLT3 (Homo sapiens, UniProt P36888)
# T1 construct: made in house; host or cells: Sf9 insect cells, baculovirus
# T1 sequence (P36888 27-993): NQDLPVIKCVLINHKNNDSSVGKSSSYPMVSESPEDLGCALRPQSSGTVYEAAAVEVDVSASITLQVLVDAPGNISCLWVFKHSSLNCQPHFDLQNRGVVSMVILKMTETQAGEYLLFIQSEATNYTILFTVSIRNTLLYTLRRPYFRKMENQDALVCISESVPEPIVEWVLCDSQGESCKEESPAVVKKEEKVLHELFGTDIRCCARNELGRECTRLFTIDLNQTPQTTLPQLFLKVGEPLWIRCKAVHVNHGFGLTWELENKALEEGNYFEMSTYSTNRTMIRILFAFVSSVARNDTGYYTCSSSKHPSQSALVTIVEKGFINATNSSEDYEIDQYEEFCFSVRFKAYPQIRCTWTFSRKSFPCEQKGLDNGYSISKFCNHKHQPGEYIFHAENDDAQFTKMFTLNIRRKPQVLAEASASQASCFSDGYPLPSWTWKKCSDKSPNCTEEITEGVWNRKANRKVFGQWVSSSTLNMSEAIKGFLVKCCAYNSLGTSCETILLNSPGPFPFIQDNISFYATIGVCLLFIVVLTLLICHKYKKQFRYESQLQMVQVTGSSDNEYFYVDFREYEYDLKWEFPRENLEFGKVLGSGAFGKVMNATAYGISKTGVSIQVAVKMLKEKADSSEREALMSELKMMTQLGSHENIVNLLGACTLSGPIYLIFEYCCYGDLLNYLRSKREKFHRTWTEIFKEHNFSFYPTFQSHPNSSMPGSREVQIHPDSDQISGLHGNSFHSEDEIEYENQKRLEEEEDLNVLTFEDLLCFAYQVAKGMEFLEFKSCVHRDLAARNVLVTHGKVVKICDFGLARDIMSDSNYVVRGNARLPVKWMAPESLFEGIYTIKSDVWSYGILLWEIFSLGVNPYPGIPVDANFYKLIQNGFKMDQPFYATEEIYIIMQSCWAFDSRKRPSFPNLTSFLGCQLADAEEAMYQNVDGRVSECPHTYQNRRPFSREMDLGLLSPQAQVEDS
# Excerpt: (§1) AKTI1, ARK5, Aurora-A, Aurora-B, B-RAF-VE, CDK2/CycA, CDK4/CycD1, CK2-alpha1 (catalytic subunit of CK2), EGF-R, EPHB4, ERBB2, FAK, IGF1-R, SRC, VEGF-R2, VEGF-R3, FLT3, INS-R, MET, PDGFR-beta, PLK1, SAK, TIE2, COT.
# (§2) All the protein kinases were expressed in Sf9 insect cells as human recombinant GST fusion proteins or His-tagged proteins by the baculovirus expression system. Kinases were purified by affinity chromatography either by GSH-agarose (Sigma) or Ni—NTH-agarose (Qiagen). The purity of the kinases was tested by SDS-PAGE/silver staining, and the identity of the kinases was verified by Western blot analysis with specific antibodies or mass spectroscopy.
# (§3) A radiometric protein kinase assay (33PanQinase® Activity Assay) was used to measure the kinase activity for the 24 protein kinases. The kinase assays were carried out in 96-well FlashPlates™ from Perkin Elmer/NEN (Boston, Mass., USA) in a reaction volume of 50 μl. The reaction mixture was pipetted in 4 steps in the following sequence: • 20 μl of assay buffer • 5 μl of ATP solution (in H2O) • 5 μl of test compound (in 10% DMSO) • 10 μl of substrate/10 μl of enzyme solution (premixed)
# (§4) The assays for all the enzymes contained 60 mM HEPES-NaOH, pH 7.5, 3 mM MgCl2, 3 mM MnCl2, 3 μM Na orthovanadate, 1.2 mM DTT, 50 μg/ml PEG20000, 1 μM [γ-^33P]-ATP (about 5×10^5 cpm per well).
# (§5) The reaction mixture was incubated at 30° C. for 80 minutes. The reaction was stopped with 50 μl of 2% (v/v) H3PO4. The plates were aspirated and washed twice with 200 μl of 0.9% (w/v) NaCl. The incorporation of ^33Pi was determined using a microtiter plates scintillation counter (Microbeta Trilux, Wallac).
# FAK = target: T2, FAK (Homo sapiens, UniProt Q05397)
# T2 construct: made in house; host or cells: Sf9 insect cells, baculovirus
# T2 sequence (Q05397 whole entry): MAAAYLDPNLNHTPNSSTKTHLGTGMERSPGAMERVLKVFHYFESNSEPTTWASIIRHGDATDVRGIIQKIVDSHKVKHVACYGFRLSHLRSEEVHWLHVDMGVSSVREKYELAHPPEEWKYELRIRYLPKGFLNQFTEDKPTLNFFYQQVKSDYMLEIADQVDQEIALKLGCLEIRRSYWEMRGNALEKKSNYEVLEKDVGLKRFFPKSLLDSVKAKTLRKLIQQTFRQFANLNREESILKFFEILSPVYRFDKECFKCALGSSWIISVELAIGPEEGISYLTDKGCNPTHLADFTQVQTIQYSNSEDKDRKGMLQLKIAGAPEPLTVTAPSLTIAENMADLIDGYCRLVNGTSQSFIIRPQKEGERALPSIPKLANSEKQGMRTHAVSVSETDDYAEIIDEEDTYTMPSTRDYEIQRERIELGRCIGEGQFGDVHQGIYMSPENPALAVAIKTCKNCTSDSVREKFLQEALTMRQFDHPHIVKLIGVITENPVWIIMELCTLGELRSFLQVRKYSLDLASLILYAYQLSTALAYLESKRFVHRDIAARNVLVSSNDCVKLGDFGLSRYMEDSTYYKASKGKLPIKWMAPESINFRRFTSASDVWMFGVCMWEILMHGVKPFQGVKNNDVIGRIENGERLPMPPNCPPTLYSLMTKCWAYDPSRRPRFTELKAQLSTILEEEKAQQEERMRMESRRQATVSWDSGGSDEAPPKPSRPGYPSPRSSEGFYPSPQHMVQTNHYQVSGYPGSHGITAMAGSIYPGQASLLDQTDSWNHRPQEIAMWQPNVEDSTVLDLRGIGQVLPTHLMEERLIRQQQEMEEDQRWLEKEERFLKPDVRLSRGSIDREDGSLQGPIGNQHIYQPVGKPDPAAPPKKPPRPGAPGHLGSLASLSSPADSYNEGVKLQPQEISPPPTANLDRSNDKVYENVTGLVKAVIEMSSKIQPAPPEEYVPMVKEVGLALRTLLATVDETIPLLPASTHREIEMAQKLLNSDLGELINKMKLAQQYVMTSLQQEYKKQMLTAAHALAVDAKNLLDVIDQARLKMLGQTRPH
# Excerpt: as §1, §2, §3, §4, §5
# VEGF-R3 = target: T3, VEGF-R3 (Homo sapiens, UniProt P35916)
# T3 construct: made in house; host or cells: Sf9 insect cells, baculovirus
# T3 sequence (P35916 25-1363): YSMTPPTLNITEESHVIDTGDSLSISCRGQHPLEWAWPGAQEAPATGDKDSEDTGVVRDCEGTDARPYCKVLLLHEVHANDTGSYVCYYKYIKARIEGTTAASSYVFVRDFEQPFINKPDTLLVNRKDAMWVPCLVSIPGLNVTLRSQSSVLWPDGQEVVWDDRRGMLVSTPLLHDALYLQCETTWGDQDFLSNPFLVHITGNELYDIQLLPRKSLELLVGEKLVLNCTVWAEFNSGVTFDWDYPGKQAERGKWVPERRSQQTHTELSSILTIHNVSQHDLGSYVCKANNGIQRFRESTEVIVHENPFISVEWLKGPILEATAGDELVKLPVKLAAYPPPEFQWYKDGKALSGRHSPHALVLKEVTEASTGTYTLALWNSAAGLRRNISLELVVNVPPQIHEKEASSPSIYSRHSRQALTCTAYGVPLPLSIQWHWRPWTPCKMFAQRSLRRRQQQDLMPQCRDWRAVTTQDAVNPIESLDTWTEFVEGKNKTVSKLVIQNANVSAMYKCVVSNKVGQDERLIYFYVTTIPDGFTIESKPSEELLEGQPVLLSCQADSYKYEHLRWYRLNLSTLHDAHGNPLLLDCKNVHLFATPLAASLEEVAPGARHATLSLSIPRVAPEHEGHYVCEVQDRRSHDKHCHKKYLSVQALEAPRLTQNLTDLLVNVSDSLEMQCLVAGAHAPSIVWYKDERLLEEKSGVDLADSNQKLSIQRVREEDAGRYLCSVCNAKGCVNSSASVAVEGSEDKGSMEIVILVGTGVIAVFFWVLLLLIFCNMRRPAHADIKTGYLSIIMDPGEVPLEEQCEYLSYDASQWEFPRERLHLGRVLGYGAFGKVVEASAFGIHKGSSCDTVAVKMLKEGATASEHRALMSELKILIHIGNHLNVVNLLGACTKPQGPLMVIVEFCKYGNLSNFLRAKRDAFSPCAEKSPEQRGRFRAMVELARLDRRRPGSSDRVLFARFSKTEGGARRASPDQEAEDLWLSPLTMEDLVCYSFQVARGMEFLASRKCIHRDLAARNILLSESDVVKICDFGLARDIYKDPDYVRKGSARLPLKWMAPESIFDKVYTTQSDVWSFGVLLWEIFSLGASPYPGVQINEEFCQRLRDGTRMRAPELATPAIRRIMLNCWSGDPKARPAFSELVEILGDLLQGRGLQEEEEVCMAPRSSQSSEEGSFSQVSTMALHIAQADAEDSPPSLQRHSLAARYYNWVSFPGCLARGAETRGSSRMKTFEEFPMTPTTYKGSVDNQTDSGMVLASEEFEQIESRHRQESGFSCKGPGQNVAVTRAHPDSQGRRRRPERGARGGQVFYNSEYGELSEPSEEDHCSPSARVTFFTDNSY
# Excerpt: as §1, §2, §3, §4, §5
# PLK1 = target: T4, PLK1 (Homo sapiens, UniProt P53350)
# T4 construct: made in house; host or cells: Sf9 insect cells, baculovirus
# T4 sequence (P53350 whole entry): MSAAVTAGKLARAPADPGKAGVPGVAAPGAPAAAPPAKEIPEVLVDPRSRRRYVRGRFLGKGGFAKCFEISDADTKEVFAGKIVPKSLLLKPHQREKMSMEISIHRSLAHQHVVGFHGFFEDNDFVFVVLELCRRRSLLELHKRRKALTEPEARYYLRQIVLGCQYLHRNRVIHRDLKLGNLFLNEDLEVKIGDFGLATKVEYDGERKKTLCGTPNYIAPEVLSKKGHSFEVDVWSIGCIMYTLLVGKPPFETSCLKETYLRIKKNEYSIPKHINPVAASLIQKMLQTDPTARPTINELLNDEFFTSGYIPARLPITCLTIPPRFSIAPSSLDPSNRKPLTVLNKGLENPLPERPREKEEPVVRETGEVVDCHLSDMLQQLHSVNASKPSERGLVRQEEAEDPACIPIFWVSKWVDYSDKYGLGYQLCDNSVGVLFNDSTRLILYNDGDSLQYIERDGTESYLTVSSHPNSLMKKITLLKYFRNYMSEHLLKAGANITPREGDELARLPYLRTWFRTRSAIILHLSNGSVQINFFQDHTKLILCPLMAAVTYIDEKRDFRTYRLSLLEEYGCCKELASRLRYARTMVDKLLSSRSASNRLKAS
# Excerpt: as §1, §2, §3, §4, §5
# B-RAF-VE = target: T5, B-RAF-VE (Homo sapiens, UniProt P15056, V600E)
# T5 construct: made in house; host or cells: Sf9 insect cells, baculovirus
# T5 sequence (P15056 whole entry V600E): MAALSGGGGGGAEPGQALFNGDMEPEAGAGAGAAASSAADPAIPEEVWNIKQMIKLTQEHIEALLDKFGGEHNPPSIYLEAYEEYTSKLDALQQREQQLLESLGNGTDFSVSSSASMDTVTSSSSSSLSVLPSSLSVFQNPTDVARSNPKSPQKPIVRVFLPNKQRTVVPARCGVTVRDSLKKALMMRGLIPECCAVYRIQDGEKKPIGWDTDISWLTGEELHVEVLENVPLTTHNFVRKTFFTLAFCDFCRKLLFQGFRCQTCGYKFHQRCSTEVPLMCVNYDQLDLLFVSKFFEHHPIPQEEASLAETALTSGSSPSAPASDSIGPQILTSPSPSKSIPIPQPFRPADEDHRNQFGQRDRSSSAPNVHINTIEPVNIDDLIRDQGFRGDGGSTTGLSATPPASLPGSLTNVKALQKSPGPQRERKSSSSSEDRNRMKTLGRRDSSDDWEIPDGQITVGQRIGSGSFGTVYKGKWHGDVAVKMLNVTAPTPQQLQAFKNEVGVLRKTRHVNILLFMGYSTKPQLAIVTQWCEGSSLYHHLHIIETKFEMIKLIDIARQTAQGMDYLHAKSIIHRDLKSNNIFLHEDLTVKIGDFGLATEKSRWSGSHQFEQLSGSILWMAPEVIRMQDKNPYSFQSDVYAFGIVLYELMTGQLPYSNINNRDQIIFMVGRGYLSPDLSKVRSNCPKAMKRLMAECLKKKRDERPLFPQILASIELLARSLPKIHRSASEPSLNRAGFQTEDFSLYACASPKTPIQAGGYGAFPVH
# Excerpt: as §1, §2, §3, §4, §5
# [1] = 1 μM ATP, read-out: IC50 values [μM] FLT3
# [2] = 1 μM ATP, read-out: IC50 values [μM] FAK
# [3] = 1 μM ATP, read-out: IC50 values [μM] VEGF-R3
# [4] = 1 μM ATP, read-out: IC50 values [μM] PLK1
# [5] = 1 μM ATP, read-out: IC50 values [μM] B-RAF-VE
SMILES,IC50 (FLT3; [1]) [µM],IC50 (FAK; [2]) [µM],IC50 (VEGF-R3; [3]) [µM],IC50 (PLK1; [4]) [µM],IC50 (B-RAF-VE; [5]) [µM],IC50 (FLT3) [µM],IC50 (FAK) [µM],IC50 (VEGF-R3) [µM],IC50 (PLK1) [µM],IC50 (B-RAF-VE) [µM]
"CC(C)n1c2c(=O)ccc(=O)c2c2c(=O)c3ccccc3c21 [Compound 6b, 5-Isopropyl-5H-indeno[1,2-b]indole-6,9,10-trione]",0.051,> 10,0.96,> 10,> 10,–,–,–,–,–
"CC(C)n1c2c(c3c1-c1ccccc1C3=O)C(=O)CCC2 [Compound 4b, 5-Isopropyl-5,6,7,8-tetrahydroindeno[1,2-b]indole-9,10-dione]",–,–,–,–,–,> 10,> 10,> 10,> 10,> 10
"O=c1ccc(=O)c2c1c1c(=O)c3ccccc3c1n2Cc1ccccc1 [Compound 6c, 5-Benzyl 5,6,9,10-tetrahydroindeno[1,2-b]indole-6,9,10-trione]",9.2,> 10,7.5,> 10,> 10,–,–,–,–,–
